Test results published in US20170342110A1, “GLYCOPEPTIDES AND USES THEREOF” (JAWAHARLAL NEHRU CENTRE FOR ADVANCED SCIENTIFIC RESEARCH …, priority 2014, published 2017).
Values after ≈ are worked out from the molar mass of the structure shown. Read-outs that look alike come from different tables or passages of the source.

Experiments:
[1] = tested on: methicillin-resistant vancomycin intermediate S. aureus (MR-VISA); assay: Mouse neutropenic thigh infection model against MR-VISA; assay type: in vivo; settings: neutropenic female CD-1 mice, 12 mg/kg intravenously, 24 h post first treatment
Procedure: In-vivo activity against methicillin-resistant vancomycin intermediate S. aureus (MR-VISA):
Mouse Neutropenic Thigh Infection Model:
About six-week-old, female CD-1 mice (weight, ˜19-24 g) were used for the experiments. The mice were rendered neutropenic (˜100 neutrophils/ml) by injecting two doses of cyclophosphamide intraperitoneally 4 days (150 mg/kg) and 1 day (100 mg/kg) before the infection experiment. 50 μL of […] concentration of the bacterial inoculum (MR-VISA) was injected into the thigh. One hour after inoculation, animals were treated intravenously with saline, vancomycin, linezolid and compound 14 at 12 mg/kg body weight. At 24 h post first treatment, cohorts of animals were euthanized (using ether) and the thighs were collected aseptically. […] The dilutions of the homogenate were plated onto agar plates, which were incubated overnight at 37° C. The bacterial titer was expressed as log10 CFU/g of thigh weight.

[2] = tested on: Vancomycin-resistant E. faecalis (VanA, ATCC 51575); assay: Minimum inhibitory concentration, micro-dilution broth, VREs; assay type: cell-based; settings: Enterococcus faecalis, read-out: Minimum Inhibitory Concentration VREs
Procedure: (§1) All test compounds were assayed in a micro-dilution broth format. Stock solutions were made by serially diluting the compounds using autoclaved millipore water or broth media. The antibacterial activity of the compounds was determined againstmethicillin-resistant S. aureus (MRSA), vancomycin-intermediate-resistant S. aureus (VISA), vancomycin-sensitive E. faecium (VSE), vancomycin-resistant E. faecalis and vancomycin-resistant E. faecium (VRE). Bacteria, to be tested, were grown for about 10 h in the suitable media, MSSA, MRSA and VISA were grown in […] (about 1 g of beef extract, about 2 g of yeast extract, about 5 g of peptone and about 5 g of NaCl in about 1000 mL of sterile distilled water (pH-7)). For solid media, about 5% agar was used along with above mentioned composition. VSE and VRE were cultured in Brain Heart Infusion broth (Himedia). The bacterial samples were freeze dried and stored at −80° C. About 5 μL of these stocks were added to about 3 mL of the nutrient broth or Brain Heart Infusion broth and the culture was grown for about 6 h at about 37° C. prior to the experiments. This 6 h grown culture gives about 10^9 cfu/mL and this was determined by spread plating method. The 6 h grown culture was diluted to give effective cell concentration of about 10^5 cfu/mL, which was then used for determining MIC. Compounds were serially diluted, in sterile water (2-fold dilution is employed) in a way that the working concentration was about 10 μM for MRSA, and VSE while for VRE and VISA it was about 100 μM. About 50 μL of these serial dilutions were added to the wells of 96 well plate followed by the addition of about 150 μL of bacterial solution. The plates were then incubated at about 37° C., 150 rpm in the incubator and O.D at 620 nm was recorded at an interval of about 24 h using TECAN (Infinite series, M200 pro) Plate Reader. Each concentration had triplicate values and the whole experiment was done at least twice and the MIC value was determined by taking the average of triplicate O. D. values for each concentration and plotting it against concentration. The data was then subjected to sigmoidal fitting.

[3] = tested on: Vancomycin intermediate resistant S. aureus; assay: Minimum inhibitory concentration, micro-dilution broth, VISA; assay type: cell-based; settings: Staphylococcus aureus, read-out: Minimum Inhibitory Concentration VISA
Procedure: as §1

[4] = tested on: Methicillin-resistant S. aureus (ATCC 33591); assay: Minimum inhibitory concentration, micro-dilution broth, MRSA; assay type: cell-based; settings: Staphylococcus aureus, read-out: Minimum Inhibitory Concentration MRSA
Procedure: as §1

[5] = tested on: Vancomycin-resistant E. faecium (ATCC 51559); assay: Minimum inhibitory concentration, micro-dilution broth, VREm; assay type: cell-based; settings: for MIC: Enterococcus faecium, read-out: Minimum Inhibitory Concentration VREm
Procedure: as §1

[6] = ATCC51575, E. faecalis ATCC 51575, O.D. 620 nm at 24 h
[7] = MRSA ATCC 33591, O.D. 620 nm at 24 h
[8] = ATCC51559, E. faecium ATCC 51559, O.D. 620 nm at 24 h

Row | SMILES | reduction in bacterial count from the vehicle treated mice [1] [log10 CFU/g] | MIC [2, 6] [µM] | MIC ([3]; O.D. 620 nm at 24 h) [µM] | MIC [4, 7] [µM] | MIC [5, 8] [µM] | fold more active than vancomycin against VREm/VRE (MIC) ([5]; relative to vancomycin) [fold] | in-vivo antibacterial activity compared to vehicle treated mice (saline), in words [1] | MIC ([2]; ATCC51575, 24 h) [µM] | MIC ([3]; 24 h) [µM] | MIC ([4]; 24 h) [µM] | MIC ([5]; ATCC51559, 24 h) [µM]
1 | CCCCCCCC[n+]1ccc(CNC2(C)CC(OC3C(Oc4c5cc6cc4Oc4ccc(cc4Cl)C(O)C4NC(=O)[C@@H](NC(=O)[C@@H]6NC(=O)C(CC(N)=O)NC(=O)C(NC(=O)C(CC(C)C)NC)C(O)c6ccc(c(Cl)c6)O5)c5ccc(O)c(c5)-c5c(O)cc(O)cc5[C@@H](C(=O)NCCCNC(=O)C(O)C(O)C(O[C@H]5OC(CO)C(O)C(O)C5O)C(O)CO)NC4=O)OC(CO)C(O)C3O)OC(C)C2O)cc1 (some centres unmarked) [Compound 14] | ~6.0 | 1.36 | 0.1 | 0.09 | 0.09 | > 7500 | – | – | – | – | –
2 | CCCCCCCCCC[n+]1ccc(CNC2(C)CC(OC3C(Oc4c5cc6cc4Oc4ccc(cc4Cl)C(O)C4NC(=O)[C@@H](NC(=O)[C@@H]6NC(=O)C(CC(N)=O)NC(=O)C(NC(=O)C(CC(C)C)NC)C(O)c6ccc(c(Cl)c6)O5)c5ccc(O)c(c5)-c5c(O)cc(O)cc5[C@@H](C(=O)NCCCNC(=O)C(O)C(O)C(O[C@H]5OC(CO)C(O)C(O)C5O)C(O)CO)NC4=O)OC(CO)C(O)C3O)OC(C)C2O)cc1 (some centres unmarked) [Compound 15] | – | 1.3 | 0.09 | 0.2 | 0.3 | – | – | – | – | – | –
3 | CCCCCCCCCCCC[n+]1ccc(CNC2(C)CC(OC3C(Oc4c5cc6cc4Oc4ccc(cc4Cl)C(O)C4NC(=O)[C@@H](NC(=O)[C@@H]6NC(=O)C(CC(N)=O)NC(=O)C(NC(=O)C(CC(C)C)NC)C(O)c6ccc(c(Cl)c6)O5)c5ccc(O)c(c5)-c5c(O)cc(O)cc5[C@@H](C(=O)NCCCNC(=O)C(O)C(O)C(OC5OC(CO)C(O)C(O)C5O)C(O)CO)NC4=O)OC(CO)C(O)C3O)OC(C)C2O)cc1 (some centres unmarked) [Compound 16] | – | 1.11 | 0.31 | 0.28 | 0.37 | – | – | – | – | – | –
4 | CNC(CC(C)C)C(=O)NC1C(=O)N[C@H](CC(N)=O)C(=O)N[C@H]2C(=O)N[C@H]3C(=O)NC(C(=O)N[C@@H](C(=O)O)c4cc(O)cc(O)c4-c4cc3ccc4O)C(O)c3ccc(c(Cl)c3)Oc3cc2cc(c3OC2OC(CO)C(O)C(O)C2OC2CC(C)(N)C(O)C(C)O2)Oc2ccc(cc2Cl)C1O (some centres unmarked) [Vancomycin, reference compound] | – | – | – | – | – | – | minimal or no activity | 250 (≈ 362 µg/mL) | 8 to 12 (≈ 11.6 to 17.4 µg/mL) | 0.78 (≈ 1.13 µg/mL) | 750 (≈ 1090 µg/mL)
5 | CC(=O)NC[C@H]1CN(c2ccc(N3CCOCC3)c(F)c2)C(=O)O1 [linezolid] | – | – | – | – | – | – | minimal or no activity | – | – | – | –
